Assay results reported in PMC10615177 (ACS infectious diseases, 2023).
Read-outs that look alike come from different tables or passages of the source.

What was measured:
M. smegmatis = M. smegmatis cell growth inhibition; type: cell-based, Mycobacterium smegmatis; conditions: read-out: Ms IC50; M. smegmatis
M. tuberculosis HN878 = M. tuberculosis HN878 growth inhibition; type: cell-based, Mycobacterium tuberculosis; conditions: for Less activity than SQ109 against M. tuberculosis: MtbHN878, MtErdman and MtH37Rv; for IC50: read-out: Mtb HN878 IC50, dose-response curves; for Mtb HN878 MIC: visual inspection
M. tuberculosis Erdman = M. tuberculosis Erdman growth inhibition; type: cell-based, Mycobacterium tuberculosis
M. tuberculosis H37Rv = M. tuberculosis H37Rv growth inhibition; type: cell-based, Mycobacterium tuberculosis
[1] = test system: M. abscessus smooth variant; experiment: microbe, parasite or virus in culture; type: cell-based
[2] = test system: M. abscessus rough variant; experiment: microbe, parasite or virus in culture; type: cell-based
E. coli = E. coli growth inhibition; type: cell-based, Escherichia coli; conditions: for IC50: read-out: Ec IC50
[3] = test system: T. brucei bloodstream forms; experiment: T. brucei bloodstream form growth inhibition; type: cell-based, Trypanosoma brucei; conditions: read-out: T. brucei IC50; bloodstream forms
[4] = test system: T. cruzi Dm28c epimastigotes; experiment: T. cruzi epimastigote growth inhibition; type: cell-based, Trypanosoma cruzi; conditions: read-out: T. cruzi IC50 (EPI); epimastigotes
[5] = test system: T. cruzi Dm28c intracellular amastigotes; experiment: T. cruzi intracellular amastigote inhibition; type: cell-based, Trypanosoma cruzi; conditions: read-out: T. cruzi IC50 (PAR); intracellular amastigotes in U2OS host cells
[6] = test system: L. donovani promastigotes; experiment: L. donovani promastigote growth inhibition; type: cell-based, Leishmania donovani; conditions: read-out: L. donovani IC50; promastigotes
[7] = test system: L. mexicana promastigotes; experiment: L. mexicana promastigote growth inhibition; type: cell-based, Leishmania mexicana; conditions: read-out: L. mexicana IC50; promastigotes
[8] = test system: Plasmodium falciparum asexual blood stages; experiment: P. falciparum asexual blood stage; type: cell-based; conditions: read-out: PfABS IC50 (μM ± S.E.); asexual blood stages
[9] = target: M. tuberculosis MmpL3 (MtMmpL3) (Mycobacterium tuberculosis, UniProt P9WJV5); experiment: Surface plasmon resonance binding to MmpL3; conditions: for koff: 1:1 Langmuir binding model
Sequence of M. tuberculosis MmpL3 (MtMmpL3) (P9WJV5 whole entry): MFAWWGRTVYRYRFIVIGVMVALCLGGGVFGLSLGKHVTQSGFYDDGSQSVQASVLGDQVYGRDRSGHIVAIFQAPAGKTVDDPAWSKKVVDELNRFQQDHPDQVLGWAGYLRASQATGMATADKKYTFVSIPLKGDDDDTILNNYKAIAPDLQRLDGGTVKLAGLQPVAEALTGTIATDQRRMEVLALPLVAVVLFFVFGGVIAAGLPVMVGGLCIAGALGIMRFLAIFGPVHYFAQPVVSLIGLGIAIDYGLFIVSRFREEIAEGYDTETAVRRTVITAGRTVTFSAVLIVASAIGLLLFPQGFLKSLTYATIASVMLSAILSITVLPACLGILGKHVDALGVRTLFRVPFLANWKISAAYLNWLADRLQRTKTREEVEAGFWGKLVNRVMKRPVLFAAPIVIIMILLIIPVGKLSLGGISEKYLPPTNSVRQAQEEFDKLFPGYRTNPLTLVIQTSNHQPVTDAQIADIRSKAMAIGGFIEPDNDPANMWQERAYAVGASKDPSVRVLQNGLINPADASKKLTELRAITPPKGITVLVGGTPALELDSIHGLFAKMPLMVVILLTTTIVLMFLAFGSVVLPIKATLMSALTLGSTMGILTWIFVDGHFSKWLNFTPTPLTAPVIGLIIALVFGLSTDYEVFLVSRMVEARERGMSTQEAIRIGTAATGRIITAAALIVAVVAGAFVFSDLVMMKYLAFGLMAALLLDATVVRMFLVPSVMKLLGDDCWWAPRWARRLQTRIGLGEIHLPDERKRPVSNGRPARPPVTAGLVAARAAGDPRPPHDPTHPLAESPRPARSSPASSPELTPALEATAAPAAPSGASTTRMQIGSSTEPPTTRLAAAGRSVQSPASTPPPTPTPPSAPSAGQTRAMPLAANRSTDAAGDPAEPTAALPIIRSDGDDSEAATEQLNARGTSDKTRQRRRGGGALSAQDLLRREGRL

[10] = DSC of DMPC bilayers with inhibitor; type: physicochemical; conditions: for Tm (main transition) / ΔH / ΔT1/2: 10 wt % inhibitor, PBS pH 7.4, heating
[11] = DSC of DSPG bilayers with inhibitor; type: physicochemical; conditions: for Tm (main transition) / ΔH / ΔT1/2: 10 wt % inhibitor, PBS pH 7.4, heating; for Broadening of main transition peak ΔΤ1/2 compared to pure DSPG / Decrease of Tm compared to DSPG alone: heating
[12] = test system: HepG2 (human hepatocellular carcinoma) cells; experiment: HepG2 cell line viability
[13] = Rat liver microsome stability; conditions: rat liver microsomes
[14] = Mice liver microsome stability; conditions: mice microsomes
[15] = Human liver microsome stability
U2OS host cells = experiment: U2OS host cell growth inhibition; conditions: read-out: T. cruzi CC50 (U20S)
Bacillus subtilis = experiment: B. subtilis growth inhibition; type: cell-based; conditions: read-out: Bs IC50
[16] = test system: M. abscessus strain PIPD1^R1 (A309P mutation in MmpL3); conditions: cited from earlier work
[17] = read-out: KD, 1:1 model, 1:1 binding model, from ratio of rate constants
[18] = read-out: KD, 2-state, two-state model, from rate constants

Row | SMILES | IC50 (M. smegmatis) [nM] | IC50 (M. tuberculosis HN878) [nM] | Mtb HN878 MIC (M. tuberculosis HN878) [µM] | Mtb Erdman MIC (M. tuberculosis Erdman) [µM] | Mtb H37Rv MIC (M. tuberculosis H37Rv) [µM] | Ma(S) MIC [1] [µM] | Ma(R) MIC [2] [µM] | IC50 [3] [nM] | IC50 [4] [nM] | IC50 [5] [nM] | IC50 [6] [nM] | koff [9] [s⁻¹] | Kd [9, 17] [nM] | Kd [9, 18] [nM] | ka1 ([9]; two-state model) [M⁻¹ s⁻¹] | ka2 ([9]; two-state model) [s⁻¹] | kd1 ([9]; two-state model) [s⁻¹] | kd2 ([9]; two-state model) [s⁻¹] | Tm (main transition) [10] [°C] | ΔH [10] [kcal/mol] | further results
1 | CC(C)=CCCC(C)=CCNCCNC1(C)C2CC3CC(C2)CC1C3 (stereo not drawn) [Compound 8b, N-(3,7-dimethylocta-2,6-dien-1-yl)-N´-(2-methyl-2-adamantanyl)ethane-1,2-diamine] | 4400 ± 500 | 860 ± 60 | 0.8 | 3.5 | 3.5 | 43 | 22 | 2100 ± 20 | 3500 ± 1000 | 770 ± 200 | 2000 ± 1000 | 0.6882 | 188000 | 248000 | 4958 | 0.01084 | 1.613 | 0.03486 | 17.9 | 6.12 | IC50 higher than SQ109, MtHN878 (M. tuberculosis HN878): ~ 3 fold; Less activity than SQ109 against M. tuberculosis (M. tuberculosis HN878): 2–4 fold; IC50 (E. coli): 25000 nM; IC50 [7]: 430 ± 80 nM; IC50 [8]: 0.66 ± 0.18 µM; ΔT1/2 [10]: 2.2 °C; Decrease of Tm compared to DMPC without inhibitor ([10]; heating): ca. 5.6 °C; Tm (main transition) [11]: 50.5 °C; ΔH [11]: 12.7 kcal/mol; ΔT1/2 [11]: 2.0 °C; Broadening of main transition peak ΔΤ1/2 compared to pure DSPG [11]: 0.2–1.6 °C; Decrease of Tm compared to DSPG alone [11]: 3–4 °C; HepG2 % viability @ 20 μM [12]: 100%; Intrinsic clearance rate (CLint) relative to SQ109 [13]: about twice as large; Intrinsic clearance rate (CLint) relative to SQ109 [14]: essentially the same; Intrinsic clearance rate (CLint) relative to SQ109 ([15]; human liver microsomes): about twice as large; Stability relative to SQ109 (% remanent at 60 minutes) ([15]; human, mice and rat liver microsomes): 2–4 x; CC50 (U2OS host cells): 2800 ± 700 nM
2 | CC(C)=CCCC(C)=CCNCCNC1(Cc2ccccc2)C2CC3CC(C2)CC1C3 (stereo not drawn) [Compound 8g, N-(3,7-dimethylocta-2,6-dien-1-yl)-N´-(2-benzyladamantan-2-yl)ethane-1,2-diamine] | 6000 | 2000 ± 500 | 1.6 | 6.1 | 6.1 | 5.8 | 5.8 | 850 ± 90 | 6600 ± 1000 | 920 ± 60 | 6100 ± 60 | 0.3999 | 69000 | 74000 | 6462 | 0.006528 | 0.5715 | 0.03248 | 16.6 | 5.16 | Less activity than SQ109 against M. tuberculosis (M. tuberculosis HN878): 2–4 fold; Activity against M. abscessus higher than SQ109 [1]: 4–8 fold; MIC against M. abscessus [1]: 5.8 to 6.2 µM; IC50 (Bacillus subtilis): 590 nM; IC50 (E. coli): 130000 nM; ΔT1/2 [10]: 10 °C; Broadening of main transition peak ΔΤ1/2 compared to pure DMPC ([10]; heating): 9.6 °C; Decrease of Tm compared to DMPC without inhibitor ([10]; heating): ~6.9 °C; Tm (main transition) [11]: 48.0 °C; ΔH [11]: 13.3 kcal/mol; ΔT1/2 [11]: 1.7 °C; Broadening of main transition peak ΔΤ1/2 compared to pure DSPG [11]: 0.2–1.6 °C; Decrease of Tm compared to DSPG alone [11]: ~ 5 °C; HepG2 % viability @ 20 μM [12]: 100%; CC50 (U2OS host cells): 2000 ± 400 nM
3 | CCCCC1(NCCNCC=C(C)CCC=C(C)C)C2CC3CC(C2)CC1C3 (stereo not drawn) [Compound 8e, N-(3,7-dimethylocta-2,6-dien-1-yl)-N´-(2-butyladamantan-2-yl)ethane-1,2-diamine] | 2500 | 2500 ± 200 | 3 | 9.7 | 12.9 | 6.2 | 6.2 | 370 ± 20 | 2500 ± 1000 | 840 ± 500 | 4000 ± 400 | 0.3888 | 97000 | 108000 | 5151 | 0.009897 | 0.7008 | 0.03763 | 15.7 | 5.83 | Activity against M. abscessus higher than SQ109 [1]: 4–8 fold; MIC against M. abscessus [1]: 5.8 to 6.2 µM; IC50 (Bacillus subtilis): 540 nM; IC50 (E. coli): 7800 nM; IC50 [8]: 0.27 ± 0.04 µM; ΔT1/2 [10]: 2.2 °C; Decrease of Tm compared to DMPC without inhibitor ([10]; heating): ~7.8 °C; Tm (main transition) [11]: 49.0 °C; ΔH [11]: 9.2 kcal/mol; ΔT1/2 [11]: 3.6 °C; Broadening of main transition peak ΔΤ1/2 compared to pure DSPG [11]: 2.7 °C; Decrease of Tm compared to DSPG alone [11]: ~ 5 °C; HepG2 % viability @ 2 μM ([12]; 2 μM): 83%; HepG2 % viability @ 20 μM [12]: 50%; CC50 (U2OS host cells): 1700 ± 1000 nM
4 | Cc1ccccc1CN1CCC(O)(c2ccc(Cl)c(C(F)(F)F)c2)CC1 [PIPD1] |  |  |  |  |  |  |  |  |  |  |  |  |  |  |  |  |  |  |  |  | Resistance (fold) ([16]; MmpL3 inhibitor resistance): 32–64 x; Resistance of strain PIPD1^R1 [16]: very high resistance
5 | CC(C)=CCCC(C)=CCNCCNC1(c2ccccc2)C2CC3CC(C2)CC1C3 (stereo not drawn) [Compound 8h, N-(3,7-dimethylocta-2,6-dien-1-yl)-N´-(2-phenyl-adamantan-2-yl)ethane-1,2-diamine] | 5800 | 2300 ± 200 | 1.6 | 13 | 13 | 12 | 6 | 1300 ± 300 | 7300 ± 2000 | 600 ± 40 | 1400 ± 1000 | 0.465 | 115000 | 136000 | 25900 | 0.00526 | 4.085 | 0.03247 | 14.7 | 7.12 | Ec IC50 (E. coli): No inhibition; IC50 [8]: 0.42 ± 0.09 µM; ΔT1/2 [10]: 2.7 °C; Decrease of Tm compared to DMPC without inhibitor ([10]; heating): ~8.8 °C; Tm (main transition) [11]: 48.6 °C; ΔH [11]: 13.2 kcal/mol; ΔT1/2 [11]: 5.3 °C; Broadening of main transition peak ΔΤ1/2 compared to pure DSPG [11]: 4.4 °C; Decrease of Tm compared to DSPG alone [11]: ~ 5 °C; HepG2 % viability @ 20 μM [12]: 100%; Intrinsic clearance rate (CLint) relative to SQ109 [13]: about twice as large; Metabolism relative to SQ109 [13]: more rapidly metabolized; % remanent at 60 minutes relative to SQ109 [14]: same % remanent as SQ109 (8a); Intrinsic clearance rate (CLint) relative to SQ109 [14]: essentially the same; Intrinsic clearance rate (CLint) relative to SQ109 ([15]; human liver microsomes): about twice as large; Metabolism relative to SQ109 ([15]; human liver microsomes): more rapidly metabolized; CC50 (U2OS host cells): 3500 ± 1000 nM
